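Exposure lasted 48 hours, with cells grown in 96-well plates and compounds tested at five concentrations. TGI: concentration producing complete growth inhibition.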
Columns and labels:
Assay in all cases: growth of human tumour cells (NCI), 48 h
MDA-N = test system: MDA-N
MDA-MB-231 breast = test system: MDA-MB-231 breast
CAKI-1 renal = test system: CAKI-1 renal
LOX IMVI melanoma = test system: LOX IMVI melanoma
EKVX NSCLC = test system: EKVX NSCLC
TK-10 renal = test system: TK-10 renal
HCC-2998 colon = test system: HCC-2998 colon
BT-549 breast = test system: BT-549 breast
MDA-MB-435 = test system: MDA-MB-435
COLO 205 colon = test system: COLO 205 colon
SF-268 CNS = test system: SF-268 CNS
SR leukemia = test system: SR leukemia
OVCAR-3 ovarian = test system: OVCAR-3 ovarian
HL-60(TB) leukemia = test system: HL-60(TB) leukemia
NCI-H226 lung = test system: NCI-H226 lung
IGROV1 ovarian = test system: IGROV1 ovarian
SW-620 colon = test system: SW-620 colon

Structure (SMILES)	TGI (MDA-N) [µM]	TGI (MDA-MB-231 breast) [µM]	TGI (CAKI-1 renal) [µM]	TGI (LOX IMVI melanoma) [µM]	TGI (EKVX NSCLC) [µM]	TGI (TK-10 renal) [µM]	TGI (HCC-2998 colon) [µM]	TGI (BT-549 breast) [µM]	TGI (MDA-MB-435) [µM]	TGI (COLO 205 colon) [µM]	TGI (SF-268 CNS) [µM]	TGI (SR leukemia) [µM]	TGI (OVCAR-3 ovarian) [µM]	TGI (HL-60(TB) leukemia) [µM]	TGI (NCI-H226 lung) [µM]	TGI (IGROV1 ovarian) [µM]	TGI (SW-620 colon) [µM]
O=C(CCCCCCCCC(=O)N1C(=O)CC(=O)N(c2ccccc2)C1=S)N1C(=O)CC(=O)N(c2ccccc2)C1=S	> 100	> 100	> 100	> 100	> 100	> 100	> 100	> 100	> 100	> 100	> 100	> 100	> 100	–	–	–	–
CSCCCS/C1=C/CCCCCCCCCC1	> 100	> 100	> 100	> 100	> 100	> 100	> 100	–	> 100	> 100	> 100	> 100	> 100	> 100	> 100	> 100	–
COc1cc2cc(C(=O)N3CC(CCl)c4c3cc(NC(=O)OCc3ccc([N+](=O)[O-])cc3)c3ccccc43)[nH]c2c(OC)c1OC (centres undefined)	> 100	> 81.5	> 39.4	> 100	> 100	–	16.3	> 100	> 100	> 100	> 81.2	–	> 100	> 38.5	> 100	> 90	> 100
C=CC(OC(C)=O)c1ccc(OC(=O)C(C)C)c(OC)c1 (centres undefined)	16.8	18.4	3.65	5.18	16.6	11.5	29.5	16.4	15.6	7.65	38.9	–	12.4	> 23.6	39.8	28.7	7.69
CCOC(=O)c1cc(I)c(-c2cc(C)no2)n1C	> 100	> 100	54.7	> 100	> 100	> 100	–	> 100	> 100	> 100	> 100	–	> 100	74.5	> 100	–	> 100
O=c1[nH]c2ccccc2c(O)c1/C=N/C(=S)NCc1ccccc1	> 100	> 100	> 100	> 100	> 100	> 100	–	> 100	> 100	> 100	–	–	> 100	> 100	> 100	> 100	> 100
CCOP(=O)(OCC)C(c1ccccc1)N(C(=O)NC(F)(F)F)c1cccc(F)c1 (centres undefined)	> 100	> 100	> 100	> 100	> 100	> 100	> 100	–	> 100	> 100	> 100	> 100	> 100	> 100	> 100	> 100	> 100
CC(C)CCCC(C)[C@H]1CC[C@H]2[C@@H]3CC[C@H]4C[C@@H](CCC=C(c5cc(Cl)c(O)c(C(=O)OC(C)C)c5)c5cc(Cl)c(O)c(C(=O)OC(C)C)c5)CC[C@]4(C)[C@H]3CC[C@]12C (some centres undefined)	> 50	> 50	> 50	> 50	> 50	–	> 50	> 50	> 50	> 50	> 50	–	> 50	> 50	–	> 50	> 50
O=c1[nH]c(=O)n(C2CC(O)C(CO)O2)cc1NN=NCCCc1ccccc1 (centres undefined)	> 100	> 100	> 100	> 100	> 100	> 100	> 100	–	> 100	> 100	> 100	> 100	> 100	> 100	> 100	> 100	–
C/C(=C\c1ccccc1)C(=O)NCc1ccc(C(=O)NCCc2ccccc2)cc1	> 100	> 100	> 100	> 100	> 100	> 100	> 100	> 100	> 100	> 100	> 39.5	> 100	> 100	–	66.1	> 100	> 100
COc1cc(O)c2c(=O)c3c(C)cccc3n(C)c2c1	> 10	> 10	> 10	> 10	> 10	> 10	> 10	> 10	> 10	> 10	> 10	–	> 10	–	> 10	> 10	> 10
Brc1ccc2c3c1[C@H]1O[C@H]1c1cccc(c1-3)[C@@H]1O[C@H]21	35.4	40.6	31.6	9.39	36.5	37.4	–	31.5	29.4	38.3	36.8	> 100	–	–	64	–	–
CN(CCO)CCCC1COc2ccccc2O1 (centres undefined)	> 100	–	> 100	–	> 100	> 100	> 100	> 100	–	> 100	45.4	> 100	> 100	> 100	> 100	> 100	> 100
Cc1cn(CCCCCCC2=NCCCN2)c(=O)[nH]c1=O	> 100	> 100	> 100	> 100	> 100	> 100	> 100	> 100	> 100	> 100	> 100	–	> 100	–	> 100	> 100	> 100
C[n+]1c(-c2ccc(/C=N/Nc3ccnc(N/N=C/c4ccc(-c5cn6ccsc6[n+]5C)cc4)n3)cc2)cn2ccsc21	38.6	> 100	66.6	–	45.7	> 100	> 100	78.5	40.1	87.9	–	> 100	> 100	–	60.6	> 100	> 100
CC(=O)OC(Cc1ccc2ccccc2n1)(C(F)(F)F)C(F)(F)F	3.54	4.12	2.96	0.409	10.2	2.55	7.57	4.17	3.55	1.98	7.54	–	1.99	0.352	4.77	6.02	12
CNC(=S)N/N=C(\C(=N/NC(=S)NC)c1ccccn1)c1ccccn1	> 100	> 100	> 100	> 100	> 100	> 100	> 100	> 100	> 100	> 100	> 63.6	–	–	–	> 75.1	> 100	> 100
O=C(O)C[C@@H]1[C@@H](O)[C@@H](O)CN2C(=O)c3ccccc3[C@H]12	> 100	> 100	> 100	> 100	> 100	> 100	> 100	> 100	> 100	> 100	> 100	> 100	–	–	> 100	> 100	> 100
O=c1cc(NNc2cccc(F)c2)[nH]c(=O)[nH]1	> 100	30.4	29.9	36.9	–	27.2	> 100	> 100	–	> 100	> 100	61.7	30.1	44.6	> 100	46.7	34.5
CSC1C(=O)Nc2ccc3ccccc3c21 (centres undefined)	> 100	56.5	38.9	31	38.2	33.2	> 100	50.7	> 100	43.3	38	–	–	10.8	> 100	33.3	49
CCO[C@@]1(COCc2ccccc2)OC(=O)C[C@@H]1N1C(=O)OC[C@@H]1c1ccccc1	> 100	> 100	76.4	> 100	> 100	> 100	> 100	> 100	> 100	> 100	> 100	–	> 100	> 100	> 100	> 100	> 100
Cc1c(-c2ccccc2)nn2cc(-c3ccccc3)nnc12	> 100	62.9	> 100	41.1	–	> 100	34	87.3	> 100	62	> 100	> 100	> 100	–	49.5	> 100	49.5
O=C(c1ccccc1)n1cc(-c2ccccc2)c2c(=O)[nH]cnc21	> 100	> 100	> 100	> 100	> 100	> 100	> 100	> 100	> 100	> 100	> 100	–	> 100	–	> 100	> 100	> 100

Reference: PubChem BioAssay (NCI)
